This is an account of results in patent US20100069393A1, “METHOD OF TREATMENT AND AGENTS USEFUL FOR SAME” (PRANA BIOTECHNOLOGY LIMITED, priority 2006, published 2010).

Data set [1] in a line: Blood brain barrier penetration (brain:plasma ratio after IV dose). As to conditions: nominal dose 5 mg/kg, male Swiss Outbred mice. The format is in vivo. As to the method:
A bolus injection of each of the test compound (50 μL of a 3 mg/mL aqueous solution containing 40% propylene glycol and 10% ethanol) was administered by tail vein injection to male Swiss Outbred mice (5-7 weeks of age).
At 5 and 60 min post-dose (n=3 mice at each time point), blood was collected by cardiac puncture and the whole brain was removed by making an incision through the back of the skull. Mice were anaesthetised approximately 3-4 min prior to blood and brain harvest with an intraperitoneal injection of ketamine and xylazine (133 mg/kg and 10 mg/kg, respectively).
The whole brain was placed into preweighed polypropylene vials and stored at −20° C. until analysis. On the day of analysis, the whole brain was homogenised in 3 parts of water (on ice to reduce the potential for ex vivo brain degradation) and an aliquot of the brain homogenate and plasma was analysed for compound concentration by LCMS. Standards were prepared by spiking blank brain homogenate and both samples and standards were processed by adding acetonitrile to the tissue homogenate, centrifuging and injecting an aliquot of the supernatant onto the LCMS.
To ensure complete recovery of compound from the brain, brain homogenate was spiked with compound (in 50% acetonitrile:50% water) to a nominal concentration of 500 ng/mL. The concentration of compound in the supernatant was then determined by LCMS and compared to the supernatant concentration when compound was added following precipitation with acetonitrile.

Data set [2] is described as follows: Cytotoxicity: viability of M17 cells. As to conditions: human, M17 neuroblastoma cells, Cytotoxicity (% viable at 1 and 10 uM); for viability at 1 uM: test compound 1 uM; for viability at 10 uM: test compound 10 uM.
A short description of data set [3]: Mice plasma concentration. The format is in vivo. The conditions noted are these: for Mice plasma concentration: presence in plasma at one or two time points (between 30 min and 4 h); for Mice plasma concentration in Tg mice: one or two time points (between 30 min and 4 h).
Data set [4] can be described thus: E Log D (chromatographic method, pH 7.4). In kind it is physicochemical. As to the method:
Effective Log D values were measured using a chromatographic method employing a SUPELCOSIL LC-ABZ column using an octanol saturated mobile phase at pH 7.4. See F. Lombardo et al, J. Med. Chem. 2000, 43, 2922-2928.

Data set [5] in a line: Neurotoxicity assay: MTS viability of primary cortical neuronal cultures. The format is cell-based, mouse. As to conditions: BL6Jx129sv, mouse, primary cortical neuronal cultures, Neuronal cells, read-out: Cytotoxicity (% viable at 1 and 10 uM); for viability at 4 days, 1 uM: test compound 1 uM; for viability at 4 days, 10 uM: test compound 10 uM.
The nature of data set [6]: In vivo toxicity, visual observations. The conditions noted are these: 30 mg/kg, number of days.
The nature of data set [7]: Phase I safety and tolerability in healthy volunteers. In kind it is in vivo, human. As to the method: Compound B was administered to healthy volunteers in a 2-part study comprising single dose administration (Stage A) and multidose administration (Stage B).
The objectives of the Phase I trials were to determine the safety, tolerability and pharmacokinetics of single and multiple oral doses of Compound B in healthy volunteers. The double-blind studies were conducted at a Phase I unit in The Netherlands. The protocol included safety measures designed to capture the potential human adverse effects. A total of 65 healthy subjects have been exposed to doses of Compound B (41 single dose, 24 multiple dose).
In Stage A, fifty five (55) healthy male subjects aged 18-50 years were randomised (3:1) to receive a single oral dose of either placebo or Compound B at one of 7 dose levels (25, 50, 100, 200, 300, 500 or 800 mg).
In Stage B, thirty two (32) healthy male and female subjects aged 45-75 years (eight subjects per dose level) were randomised (3:1) to receive a daily oral dose over 7 consecutive days of either placebo or Compound B at one of 4 dose levels (200, 400, 600 or 800 mg). Each dose level comprised of 4 males and 4 females; the randomisation schedule ensuring that 1 subject/sex received placebo and 3 subjects/sex received Compound B.

Data set [8] relates to M17 human neuroblastoma cells. Briefly: Cytotoxicity: viability of M17 cells.
The next data set in a line: in vitro. The conditions noted are these: human, Cytotoxicity (% viable at 1 and 10 uM).
Data set [9] relates to primary cortical neuronal cultured cells. The data set can be described thus: Neurotoxicity assay: MTS viability of primary cortical neuronal cultures. The format is cell-based, mouse.

As for `Oc1c(I)cc(Cl)c2cccnc12`, the “B:P Ratio” value in data set [1] (5 min post dose) turned out to be 0.20. Further, the “B:P Ratio” value in [1] (60 min post dose) was found to be 0.17. Further, in data set [2], the viability at 1 uM was 107% and the viability at 10 uM came out at 72.7%. In addition, in data set [3], the Mice plasma concentration entry is “Up to 700 ng/mL”. The “ElogD (E)” value in data set [4] is on record as 1.85. In addition, in [5], the viability at 4 days, 1 uM is 90% and the viability at 4 days, 10 uM is 77%. In addition, the “Toxicity at 30 mg/kg” value in data set [6] is listed as “none”.
For `CN(C)Cc1ccc2c(Cl)cc(Cl)c(O)c2n1` [Compound B], the “incidence of adverse events” value in data set [7] (Stage A, single oral dose 25-800 mg, healthy male volunteers aged 18 to 50 years) is 43.9%. Also, the tolerability entry in data set [7] (Stage A, single oral dose, healthy male volunteers aged 18 to 50 years) is “well tolerated”; in data set [7] (Stage B, daily oral dose over 7 days (200-800 mg), healthy subjects aged 45-75 years), “generally well tolerated”.
In the case of `O=c1c2c(Cl)cc(Cl)c(O)c2ncn1-c1ccc(F)cc1`, in data set [2], the viability at 1 uM was found to be 93.2% and the viability at 10 uM was 47.3%. Besides, in [3], the “Mice plasma concentration in Tg mice” value is listed as “Up to 120 ng/mL in Tg mice”. In addition, the “ElogD (E)” value in data set [4] was 5.32. Moreover, in [5], the viability at 4 days, 1 uM was 98% and the viability at 4 days, 10 uM turned out to be 67%. In addition, in data set [6], the “Toxicity at 30 mg/kg” value is recorded as 5 days, none.
`Cc1noc(C)c1Cn1cnc2c(O)c(Cl)cc(Cl)c2c1=O`: in data set [1] (5 min post dose), the “B:P Ratio” value was determined as 0.18. Moreover, the “B:P Ratio” value in data set [1] (60 min post dose) is on record as 0.08. In [2], the viability at 1 uM was found to be 104% and the viability at 10 uM turned out to be 76%. Besides, the Mice plasma concentration entry in data set [3] is listed as “Up to 3644 ng/mL”. For the same compound, in data set [5], the viability at 4 days, 1 uM worked out at 99% and the viability at 4 days, 10 uM was 72%. The “Toxicity at 30 mg/kg” value in data set [6] is 10 days, none.
`O=c1c2c(Cl)cc(Cl)c(O)c2ncn1-c1ccccn1` [drawing 288]: the “Cytotoxicity (% viable at 1 and 10 uM)” value in data set [8] (test compound 1 uM) was determined as 107.8%; in data set [8] (test compound 10 uM), 89.2%. Further, the Mice plasma concentration result in data set [3] is on record as “Up to 144.2 ng/mL”. Besides, the “Toxicity at 30 mg/kg” value in data set [6] was 10 days, none.
Turning to `O=c1c2c(Cl)cc(Cl)c(O)c2ncn1CC1CC1`, the “B:P Ratio” value in data set [1] (5 min post dose) was 0.12. Further, the “B:P Ratio” value in data set [1] (60 min post dose) is on record as 0.07. Besides, in data set [2], the viability at 1 uM was determined as 96.2% and the viability at 10 uM is 76.8%. In addition, the Mice plasma concentration entry in [3] is “Up to 2698 ng/mL”. In addition, in data set [5], the viability at 4 days, 1 uM was determined as 116% and the viability at 4 days, 10 uM turned out to be 105%. Besides, in data set [6], the “Toxicity at 30 mg/kg” value is 11 days, none.
On to `Cc1nc(Cn2cnc3c(O)c(Cl)cc(Cl)c3c2=O)cs1`, for which the “B:P Ratio” value in data set [1] (5 min post dose) was 0.10 at 5 min, 0.10 at 60 min. In data set [1] (60 min post dose), the “B:P Ratio” value is on record as 0.10 at 5 min, 0.10 at 60 min. Further, in data set [2], the viability at 1 uM was determined as 97% and the viability at 10 uM was found to be 95.7%. The Mice plasma concentration entry in data set [3] is recorded as “Up to 2439 ng/mL”. For the same compound, in data set [5], the viability at 4 days, 1 uM was 100% and the viability at 4 days, 10 uM was 93%. Moreover, the “Toxicity at 30 mg/kg” value in data set [6] is recorded as 10 days, none.
On to `O=c1c2cccc(O)c2ncn1Cc1cn2ccccc2n1`, for which, in the data set “in vitro”, the viability at 1 uM was 95% and the viability at 10 uM was determined as 98.4%.
Take `Oc1c(N2CCOCC2)ncc2cccnc12`: in [2], the viability at 1 uM turned out to be 112% and the viability at 10 uM was found to be 93.7%. For the same compound, in data set [3], the “Mice plasma concentration in Tg mice” value is reported as “Below 80 ng/mL in Tg mice”. In addition, the “ElogD (E)” value in [4] stood at 1.45. In addition, in [5], the viability at 4 days, 1 uM came out at 104% and the viability at 4 days, 10 uM amounted to 98%. Further, the “Toxicity at 30 mg/kg” value in [6] is listed as 10 days, mild toxic signs.
With `O=c1c2c(Cl)cc(Cl)c(O)c2ncn1Cc1ccccn1`, in data set [1] (5 min post dose), the “B:P Ratio” value was determined as 0.16. In data set [1] (60 min post dose), the “B:P Ratio” value is 0.10. Moreover, in data set [2], the viability at 1 uM was determined as 102% and the viability at 10 uM is 98.9%. Also, the Mice plasma concentration entry in [3] is on record as “Up to 984 ng/mL”. In addition, in [5], the viability at 4 days, 1 uM stood at 99% and the viability at 4 days, 10 uM came out at 98%. The “Toxicity at 30 mg/kg” value in data set [6] is listed as 10 days, none.
Turning to `CCC(C)n1cnc2c(O)c(Cl)cc(Cl)c2c1=O` (stereo not shown) [drawing 189], the “Cytotoxicity (% viable at 1 and 10 uM)” value in data set [8] (test compound 1 uM) was found to be 99.2%; in [8] (test compound 10 uM), 68.6%; in [9] (test compound 1 uM) it was 94%; in [9] (test compound 10 uM), 67%. In [3], the Mice plasma concentration entry was “Up to 2949 ng/mL”. Besides, the “Toxicity at 30 mg/kg” value in data set [6] is 10 days, none.
